# Test results from PubChem BioAssay AID977606 (Broad Institute, 2014).
# Activity calls are given as the source filed them. The rule behind the calls is not given here.
# System: INS-1E Gaussia luciferase insulin secretion, no glucose, luminescence
# Experiment: glucose-independent GLuc insulin release activation – cell-based, INS-1E, Gaussia luciferase, luminescence, cherry-pick, counter-screen for glucose-dependent insulin secretion activators, dose response (AID 977606)
row,SMILES,AC40
1,CC(NC(=O)COC(=O)c1ccccc1Nc1ccccc1)c1ccccc1 (stereo unspecified),12.1 µM
2,Nc1nc(N)c2cc(Sc3ccc(Cl)cc3)ccc2n1,9.55 µM
3,CC(C)(C)C1CCc2c(sc(NC(=O)c3cccs3)c2C(N)=O)C1 (stereo unspecified),16.5 µM
4,COc1ccc(-n2c(-c3ccc(Cl)cc3)c[nH]c2=S)cc1,17.1 µM
5,CS(=O)(=O)N(Cc1ccc(Cl)cc1)c1ccc(C(=O)NCCC2=CCCCC2)cc1,6.78 µM
6,COc1ccc(C)c2sc(N(CCCN(C)C)C(=O)c3ccc(S(=O)(=O)N4CCc5ccccc5C4)cc3)nc12,3.62 µM
7,Cc1ccc(-c2ccc(C3[C@@H]4CN(Cc5cccc(F)c5)C[C@H]3N4)cc2)cc1 (stereo partly specified),2.14 µM
8,Cc1c(C)c2c(OCC(=O)O)cc3c(c2oc1=O)CCC(C)(C)O3,22 µM
9,COc1cc2nc(N3CCN(c4cc(C)ccc4C)CC3)nc(N)c2cc1OC,8.68 µM
10,CCCCc1ccc(NC(=O)COc2ccc(C(=O)Nc3ccccc3OCC)cc2)cc1,1.3 µM
11,Cc1nn(-c2ccccc2)c2nc(C(F)F)cc(C(F)F)c12,30.4 µM
12,CCOC(=O)CN1C(=O)[C@]2(OCCC=C[C@H]2C)c2ccccc21,13 µM
13,CCCCCCN1C[C@H](n2cc(C3CC3)nn2)[C@@H](O)C[C@@H]1c1ccc(C)cc1,5.22 µM
14,Cc1ccc(-c2cc(C(=O)NCc3cnn(C)c3)c3cc(Br)ccc3n2)cc1,1.24 µM
15,CCOC(=O)c1c(C)n(-c2ccc(C)cc2)c2ccc(OCC(O)CN3CCN(C)CC3)cc12 (stereo unspecified),17.2 µM
16,NCCCNC(=S)NCCCN(Cc1ccc(Cl)cc1)c1ccc(Br)cn1,23.4 µM
17,Nn1c(-c2ccccc2)cc(-c2ccccc2)cc1=O,> 35 µM (inactive)
18,O=C(NCCC1=CCCCC1)C(=O)NCC(c1ccco1)N1CCN(c2ccccc2)CC1 (stereo unspecified),3.54 µM
19,Cc1ccc(F)cc1-c1nc(NC(C)C)nc2cc(-c3ccccc3)sc12,13.6 µM
20,COc1ccc(CCNC(=O)C(=O)NN=C2CCCCCCC2)cc1OC,21.7 µM
21,CC(C)CC#Cc1ccc2c(c1)O[C@H](CN(C)C(=O)C1CCCCC1)[C@@H](C)CN([C@@H](C)CO)S2(=O)=O,15.8 µM
22,CCOC(=O)c1cnc2c(Cl)c(Cl)ccc2c1NCCN1CCOCC1,26.5 µM

row,SMILES,AC40
1,CCCCc1nc(NCCN)c(C#N)c2c1CSC(C)(C)C2,11.6 µM
2,Cc1ccc(C(=O)c2sc3nc4c(cc3c2N)CCC4)cc1,11.3 µM
3,O=C(Cn1ncc(Cl)c(Cl)c1=O)Nc1ccc2c(c1)OCO2,8.01 µM
4,CCc1nc2ccc(C(=O)NCCCN3CCCC3=O)cn2c1N(CCC(C)C)CCN(C)C,> 35 µM (inactive)
5,C=CCn1c(=NC(=O)c2cc(Cl)sc2Cl)sc2cc(S(N)(=O)=O)ccc21,4.47 µM
6,COc1ccc(/C=N/NC(=O)c2ccc(COc3ccccc3Cl)o2)c(OC)c1C,4.97 µM
7,CN1CCN(CC(O)COC(c2ccc(Cl)cc2)c2ccc(Cl)cc2)CC1 (stereo unspecified),13.3 µM
8,CCCCCCN1C[C@H](n2cc(COC(=O)c3ccccc3)nn2)[C@@H](O)C[C@@H]1c1ccc(C)cc1,8.37 µM
9,OC(CNCCc1ccc(C(F)(F)F)cc1)COC(c1ccccc1)c1ccccc1 (stereo unspecified),4.72 µM
10,CC(C)CC#Cc1ccc2c(c1)O[C@@H](CN(C)Cc1cccc(F)c1)[C@H](C)CN([C@@H](C)CO)S2(=O)=O,12.7 µM
11,O=C(NCC1OCCc2ccccc21)c1ccc(NC(=O)c2ccc(Cl)cc2)cc1 (stereo unspecified),6.61 µM
12,COC(=O)C1=C(C)N(C)C(=NCc2cccc(C(F)(F)F)c2)NC1c1ccc(C(F)(F)F)cc1 (stereo unspecified),4.7 µM
13,CC(C)NC(=O)OC[C@H]1O[C@H](C#Cc2ccc(C(C)(C)C)cc2)C=C[C@H]1O,20.3 µM
14,COc1ccc(CNCC(O)COc2ccc(C(C)(C)c3ccccc3)cc2)cc1 (stereo unspecified),6.24 µM
15,Oc1ccccc1-c1cc(C(F)(F)C(F)F)nc(-c2ccccc2)n1,3.86 µM
16,Fc1ccccc1-c1ccc(C2[C@@H]3CN(Cc4ccccc4)C[C@H]2N3)cc1 (stereo partly specified),7.19 µM
17,CN(C)CCNC(=O)c1cc2c(s1)-c1ccc(Cl)cc1SC2,4.87 µM
18,C[C@H]1CN([C@@H](C)CO)S(=O)(=O)c2ccc(C#Cc3ccccc3)cc2O[C@@H]1CN(C)C(=O)CN(C)C,11.1 µM
19,CCCCCc1c(Cc2ccccc2)ncn1CCc1ccccc1OC,8.28 µM
20,C=CCNC(=S)N/N=C/c1ccc(-c2cc(Cl)ccc2Cl)o1,4.34 µM
21,CCCOc1ccc(/C=N/NC(=O)C(=O)Nc2ccccn2)cc1,18.5 µM
22,O=C1CC(Sc2nnc(-c3ccccc3)o2)C(=O)N1c1ccccc1 (stereo unspecified),9.58 µM

row,SMILES,AC40
1,O=C(Nc1ccccc1N1CCOCC1)C1=NN(c2ccccc2)C(=O)CC1,24.3 µM
2,CCCCc1c(-c2ccccc2OC)ncn1Cc1ccc(C)cc1,11.9 µM
3,Clc1ccc(-c2ccnc(Oc3ccc4ccccc4c3)n2)cc1,7.79 µM
4,CCCCCCCCN1C(=O)[C@@H](CC(=O)N2CCN(C(=O)c3ccco3)CC2)C[C@@]2(C(=O)OC)C1=C[C@H](C1CCCC1)O[C@@H]2C,9.46 µM
5,CCCCc1c(-c2ccccc2OC)ncn1C(C)c1ccccc1 (stereo unspecified),12.5 µM
6,CCCCc1c(-c2ccccc2OC)ncn1Cc1ccccc1C,11.3 µM
7,CC(C)COc1ccc(Br)cc1CNC(C)(C)C,> 35 µM (inactive)
8,CC(C)n1nc(C(=O)Nc2ccccc2N2CCOCC2)c2ccccc2c1=O,6.12 µM
9,CCOc1nc(-c2ccccc2)c2cc(Br)ccc2n1,21.9 µM
10,O=C(COc1ccc2c(c1)OCO2)Nc1ccc2c(c1)oc1ccccc12,12.2 µM
11,N#Cc1cccc(Oc2ccc(-c3cnc4ccccc4n3)cc2)c1C#N,9.37 µM
12,CCCCc1c(-c2ccccc2F)ncn1CCc1ccccc1OC,9.38 µM
13,Cc1cc(C)n(-c2nc(NCCN(C)C)c3c4c(sc3n2)CCCC4)n1,10.7 µM
14,CCOc1ccc(-c2nnn(CC(=O)Nc3ccccc3OC)n2)cc1OCC,7.27 µM
15,Cc1c(C(=O)OCC(=O)N2CC(=O)Nc3ccccc32)oc2ccc(Br)cc12,5.24 µM
16,O=C(Nc1cccnc1)/C(N=Nc1cccnc1)=C(\O)c1ccccc1,> 35 µM (inactive)
17,OC[C@@H]1[C@@H](c2ccc(C#CC3CCCC3)cc2)[C@H]2CN(CCC(F)(F)F)CCCCN12,6.32 µM
18,COC(=O)c1cnn(-c2nc(-c3ccccc3)cs2)c1N,20.4 µM
19,Fc1ccc(-c2ccc(C3[C@@H]4CN(Cc5ccccc5)C[C@H]3N4)cc2)cc1 (stereo partly specified),8.97 µM
20,CN(C)CCCNc1cc(C(C)(C)C)nc2c(-c3ccc(Cl)cc3)cnn12,3.6 µM
21,Cc1cc(C(F)F)n2ncc(C(=O)NCc3ccc(F)cc3)c2n1,> 35 µM (inactive)
22,COC(=O)C1=C(C)N(Cc2cccc(C(F)(F)F)c2)C(=NCc2ccccc2)NC1c1ccc(Cl)cc1 (stereo unspecified),10.4 µM

row,SMILES,AC40
1,Cc1ccc(C)c(C(=O)Nc2nc3ccccc3[nH]2)c1,4.67 µM
2,COC(=O)C1=C(C)N(Cc2cccc(C(F)(F)F)c2)C(=NCc2ccc(OC)cc2)NC1c1cccc(F)c1 (stereo unspecified),3.75 µM
3,CN(C)c1ncnc2sc(-c3ccccc3)cc12,30.3 µM
4,CC(C)(C(=O)N1CCC1(C)C(=O)NS(=O)(=O)c1ccc(Br)cc1)c1ccccc1 (stereo unspecified),10.3 µM
5,FC(F)(F)c1cc(CCN2CCNC[C@H]2Cc2cccc3ccccc23)cc(C(F)(F)F)c1,3.69 µM
6,Cc1ccc2oc(-c3cccc(NC(=O)Cc4cccs4)c3)nc2c1,2.42 µM
7,CC(C)CC(NC(=O)c1ccc(Cl)cc1)C(=O)OCC(=O)c1ccc2c(c1)NC(=O)CO2 (stereo unspecified),2.04 µM
8,COC(=O)C1=C(C)N(Cc2ccc(C(F)(F)F)cc2)C(=NCc2ccccc2)NC1c1ccc(Cl)cc1 (stereo unspecified),10.8 µM
9,O=C(c1cccs1)c1coc2ccc(O)c(CN3CCOCC3)c12,> 35 µM (inactive)
10,O=c1[nH]cnc2nc(-c3ccc(N(CCCl)CCCl)cc3)[nH]c12,4.26 µM
11,Cc1ccccc1C(=O)Nc1nnc(-c2ccc(C(C)(C)C)cc2)s1,4.97 µM
12,COc1cc(/C=N/NC(=O)Nc2ccccc2)ccc1OCCOc1ccccc1C,1.92 µM
13,OC1(C#Cc2c(-c3ccsc3)sc3ccccc23)CCCCC1,13.3 µM
14,Cc1ccc(SC[C@H](C)CN2CC[C@H](C(C)(C)C)CCC2=O)cc1,4.93 µM
15,CN(C)CCOc1ccc(-c2c(-c3ccsc3)sc3ccccc23)cc1,5.7 µM
16,Cc1cc(C)nc(NS(=O)(=O)c2ccc(N/C=C/C(=O)c3ccc(Cl)c(Cl)c3)cc2)n1,4.44 µM
17,COc1ccc(-c2ccc(-c3noc(-c4ccco4)n3)c(OC)n2)cc1,5.41 µM
18,CCCCCCCOC(=O)c1nc(Cl)c(Cl)c(N)c1Cl,8.89 µM
19,OC(c1ccccc1)(c1ccccc1)C1CCN(CCCOc2cccc(OC(F)(F)F)c2)CC1,3.95 µM
20,Cc1ccc(CNc2nc(NCc3ccccc3)nc3ccsc23)c(C)c1,5.58 µM
21,CC1(C(=O)NCC2CCCCC2)CCN1CCc1ccccc1 (stereo unspecified),17.9 µM
22,C=CCOc1ccc(-c2nc3c(c(=O)[nH]c(=O)n3CCCC)n2C)cc1Br,10.1 µM

row,SMILES,AC40
1,COCCN(CCOC)Cc1cc(=O)oc2cc(OC)c(Cl)cc12,> 35 µM (inactive)
2,CCCCCCC1CCC(C(=O)Nn2c(C)nc3ccccc3c2=O)CC1 (stereo unspecified),14.8 µM
3,COc1ccc(-n2sc3ccccc3c2=O)cc1,0.759 µM
4,Cn1c(=O)c(C(=O)NNC(=O)c2cccc(Cl)c2)c(O)c2ccccc21,9.13 µM
5,O=S(=O)(c1ccccc1F)N1C[C@@H]2N[C@H](C1)C2c1ccc(/C=C/c2ccccc2)cc1 (stereo partly specified),7.12 µM
6,COc1cc(CN2[C@@H]3CNC[C@H]2C3c2ccc(/C=C/c3ccccc3)cc2)cc(OC)c1 (stereo partly specified),9.7 µM
7,CCOc1cccc(-c2csc(C3COc4ccccc4O3)n2)c1 (stereo unspecified),5.47 µM
8,COc1cc2sc3ccc(C#Cc4ccc(N)cc4)cc3c(=O)c2cc1OC,19 µM
9,C[C@H](CO)N1C[C@H](C)[C@@H](CN(C)C(=O)Cc2ccccn2)Oc2cc(C#C[C@@H](C)O)ccc2S1(=O)=O,18 µM
10,Cc1nc2c(-c3ccc(F)cc3)cnn2c2c1CCC2,20.1 µM
11,Cc1ccc(-n2cc(CNCCCn3ccnc3C)c(-c3ccc(F)cc3)n2)cc1,30.7 µM
12,CCCCCCn1c(N(CC)CC)nc2c1c(=O)[nH]c(=O)n2C,30.8 µM
13,CN(C)CCNc1ncnc2oc(-c3ccccc3)c(-c3ccccc3)c12,26.4 µM
14,COc1ccccc1C(=O)NC(=S)Nc1ccc2[nH]c(=O)[nH]c2c1,8.24 µM
15,CC(=O)Nc1cc(-c2cccc(C(=O)NCCN(C)C)c2)cn2c(-c3cccc(C(F)(F)F)c3)cnc12,8.13 µM
16,COc1ccnc(N2CCN(c3cccc(C(F)(F)F)c3)CC2)c1C#N,10.1 µM
17,Cc1ccc2nc(-c3ccc(NC(=O)COC(=O)c4ccco4)cc3)sc2c1,3.8 µM
18,COc1ccc(S(=O)(=O)Nc2ccccc2OC)cc1N=Nc1c(O)[nH]c(=S)[nH]c1=O,12.6 µM
